Source: patent US20020035061A1, “COMPOSITIONS AND METHODS FOR TREATING INFECTIONS USING CATIONIC PEPTIDES ALONE OR IN COMBINATION WITH ANTIBIOTICS” (priority 1996, published 2002)
Read-outs that look alike come from different tables or passages of the source.

What was measured:
[1] = tested on: S. marcescens; type: cell-based
[2] = tested on: S. pneumoniae; test: Agarose dilution assay (MIC); type: cell-based
[3] = tested on: bacterial isolates; test: microbe, parasite or virus in culture; type: cell-based
[4] = tested on: H. influenzae; test: Agarose dilution assay (MIC); type: cell-based; details: H. influenzae strain HIN002
[5] = tested on: K. pneumoniae; type: cell-based
[6] = tested on: S. epidermidis; type: cell-based; details: S. epidermidis strain SE003
[7] = tested on: S. pyogenes; test: Agarose dilution assay (MIC); type: cell-based; details: S. pyogenes strain SPY006
[8] = tested on: MSSA (Smith, ATCC # 19640); test: In vivo efficacy, MSSA infection; set-up: species or system S. aureus; details: formulation D, 60 min post-infection, end of eight day observation
[9] = tested on: E. cloacae; type: cell-based
[10] = tested on: E. faecium; type: cell-based; details: E. faecium strain EFM003
[11] = tested on: microorganisms with acquired resistance; test: microbe, parasite or virus in culture; type: cell-based
[12] = tested on: A. calcoaceticus; type: cell-based
[13] = tested on: E. faecalis; type: cell-based; details: for MIC, Peptide: unmodified parent peptide
[14] = tested on: S. aureus; type: cell-based; details: for MIC, Peptide: unmodified parent peptide
[15] = tested on: P. aeruginosa; type: cell-based
[16] = tested on: inherently resistant microorganisms; test: microbe, parasite or virus in culture; type: cell-based; details: S. aureus
[17] = tested on: E. coli; type: cell-based
[18] = tested on: S. maltophilia; type: cell-based
[19] = A. baumannii ABI001, Tobramycin section
[20] = P. aeruginosa 23, Piperacillin section
[21] = P. aeruginosa PA032, Tobramycin section
[22] = S. aureus SA014 (also SA014 MRSA)
[23] = S. maltophilia SMA029, Tobramycin section
[24] = S. maltophilia SMA030, Tobramycin section
[25] = peptide + Piperacillin, P. aeruginosa 23
[26] = peptide + Tobramycin, A. baumannii ABI001
[27] = peptide + Tobramycin, P. aeruginosa PA032
[28] = peptide + Tobramycin, S. maltophilia SMA029
[29] = peptide + Tobramycin, S. maltophilia SMA030

ILKKWVWWPWRRK [MBI 11F3CN]
MIC, Peptide ([1]; S. marcescens SMS003, unmodified parent peptide): >128 µg/mL
MIC ([1]; S. marcescens strain SMS004): >128 µg/mL
MIC ([2]; S. pneumoniae strain SBSPN3): >128 µg/mL
MIC ([2]; S. pneumoniae strain SPN044): >128 µg/mL
Peptide MIC + Tobramycin ([3]; A. baumannii ABI001): 16 µg/mL
Tobramycin MIC + Peptide ([3]; A. baumannii ABI001): 0.5 µg/mL
Peptide MIC Alone [3, 19]: 32 µg/mL
Peptide MIC + Tobramycin ([3]; A. baumannii ABI002): 8 µg/mL
Tobramycin MIC + Peptide ([3]; A. baumannii ABI002): 2 µg/mL
Peptide MIC Alone ([3]; A. baumannii ABI002, Tobramycin section): 16 µg/mL
Peptide MIC + Piperacillin ([3]; P. aeruginosa 23): 0.5 µg/mL
Piperacillin MIC + Peptide ([3]; P. aeruginosa 23): 64 µg/mL
Peptide MIC Alone [3, 20]: 64 µg/mL
Peptide MIC + Piperacillin ([3]; P. aeruginosa 41): 64 µg/mL
Piperacillin MIC + Peptide ([3]; P. aeruginosa 41): 4 µg/mL
Peptide MIC Alone ([3]; P. aeruginosa 41, Piperacillin section): 128 µg/mL
Peptide MIC + Tobramycin ([3]; P. aeruginosa PA032): 64 µg/mL
Tobramycin MIC + Peptide ([3]; P. aeruginosa PA032): 4 µg/mL
Peptide MIC Alone [3, 21]: >128 µg/mL
Piperacillin MIC + Peptide ([3]; S. aureus 19 MRSA): 32 µg/mL
Peptide MIC Alone ([3]; S. aureus 19 MRSA, Piperacillin section): 4 µg/mL
Peptide MIC + Tobramycin [3, 22]: 2 µg/mL
Tobramycin MIC + Peptide [3, 22]: 2 µg/mL
Peptide MIC Alone ([3]; S. aureus SA014 (also SA014 MRSA), Tobramycin section): 4 µg/mL
Peptide MIC + Piperacillin ([3]; S. aureus SB3MRSA): 2 µg/mL
Piperacillin MIC + Peptide ([3]; S. aureus SB3MRSA): 64 µg/mL
Peptide MIC Alone ([3]; S. aureus SB3MRSA, Piperacillin section): 8 µg/mL
Peptide MIC + Tobramycin ([3]; S. haemolyticus SHA005): 2 µg/mL
Tobramycin MIC + Peptide ([3]; S. haemolyticus SHA005): 0.25 µg/mL
Peptide MIC Alone ([3]; S. haemolyticus SHA005, Tobramycin section): 4 µg/mL
Peptide MIC + Tobramycin ([3]; S. maltophilia SMA029): 4 µg/mL
Tobramycin MIC + Peptide ([3]; S. maltophilia SMA029): 32 µg/mL
Peptide MIC Alone [3, 23]: 128 µg/mL
Peptide MIC + Tobramycin ([3]; S. maltophilia SMA030): 32 µg/mL
Tobramycin MIC + Peptide ([3]; S. maltophilia SMA030): 1 µg/mL
Peptide MIC Alone [3, 24]: 128 µg/mL
FIC [3, 25]: 0.51
FIC ([3]; peptide + Piperacillin, P. aeruginosa 41): 0.63
FIC ([3]; peptide + Piperacillin, S. aureus 19 MRSA): 0.38
FIC ([3]; peptide + Piperacillin, S. aureus SB3MRSA): 0.50
FIC [3, 26]: 0.53
FIC ([3]; peptide + Tobramycin, A. baumannii ABI002): 1.00
FIC [3, 27]: 0.50
FIC ([3]; peptide + Tobramycin, S. aureus SA014 (also SA014 MRSA)): 0.51
FIC ([3]; peptide + Tobramycin, S. haemolyticus SHA005): 0.56
FIC [3, 28]: 0.28
FIC [3, 29]: 0.26
MIC [4]: >128 µg/mL
MIC, Peptide ([5]; K. pneumoniae KP001, unmodified parent peptide): 64 µg/mL
MIC ([5]; K. pneumoniae strain KP002): 64 µg/mL
MIC [6]: 2 µg/mL
MIC [7]: 8 µg/mL
% Survival ([8]; 12 mg/kg ip): 0%
% Survival ([8]; 18 mg/kg ip): 10%
% Survival ([8]; 24 mg/kg ip): 90%
MIC, Peptide ([9]; E. cloacae ECL007, unmodified parent peptide): >128 µg/mL
MIC ([9]; E. cloacae strain ECL007): >128 µg/mL
MIC [10]: 4 µg/mL
Peptide MIC + Tobramycin ([11]; A. baumannii ABI001): 16 µg/mL
Tobramycin MIC + Peptide ([11]; A. baumannii ABI001): 0.5 µg/mL
Peptide MIC Alone [11, 19]: 32 µg/mL
Peptide MIC + Piperacillin ([11]; A. calcoaceticus 3): 4 µg/mL
Piperacillin MIC + Peptide ([11]; A. calcoaceticus 3): 16 µg/mL
Peptide MIC Alone ([11]; A. calcoaceticus 3, Piperacillin section): 32 µg/mL
Peptide MIC + Piperacillin ([11]; P. aeruginosa 7): 64 µg/mL
Piperacillin MIC + Peptide ([11]; P. aeruginosa 7): 64 µg/mL
Peptide MIC Alone ([11]; P. aeruginosa 7, Piperacillin section): 128 µg/mL
Peptide MIC + Piperacillin ([11]; P. aeruginosa 23): 0.5 µg/mL
Piperacillin MIC + Peptide ([11]; P. aeruginosa 23): 64 µg/mL
Peptide MIC Alone [11, 20]: 64 µg/mL
Peptide MIC + Tobramycin ([11]; P. aeruginosa PA032): 64 µg/mL
Tobramycin MIC + Peptide ([11]; P. aeruginosa PA032): 4 µg/mL
Peptide MIC Alone [11, 21]: >128 µg/mL
Peptide MIC + Piperacillin ([11]; S. maltophilia 2): 16 µg/mL
Piperacillin MIC + Peptide ([11]; S. maltophilia 2): 16 µg/mL
Peptide MIC Alone ([11]; S. maltophilia 2, Piperacillin section): 32 µg/mL
Peptide MIC + Tobramycin ([11]; S. maltophilia SMA029): 32 µg/mL
Tobramycin MIC + Peptide ([11]; S. maltophilia SMA029): 1 µg/mL
Peptide MIC Alone [11, 23]: 128 µg/mL
Peptide MIC + Tobramycin ([11]; S. maltophilia SMA030): 32 µg/mL
Tobramycin MIC + Peptide ([11]; S. maltophilia SMA030): 1 µg/mL
Peptide MIC Alone [11, 24]: 128 µg/mL
FIC ([11]; peptide + Piperacillin, A. calcoaceticus 3): 0.63
FIC ([11]; peptide + Piperacillin, P. aeruginosa 7): 1.00
FIC [11, 25]: 0.51
FIC ([11]; peptide + Piperacillin, S. maltophilia 2): 0.75
FIC [11, 26]: 0.53
FIC [11, 27]: 0.50
FIC [11, 28]: 0.26
FIC [11, 29]: 0.26
MIC, Peptide ([12]; A. calcoaceticus AC002, unmodified parent peptide): 2 µg/mL
MIC ([12]; A. calcoaceticus strain AC002): 4 µg/mL
MIC, Peptide ([13]; E. faecalis EFS001): 32 µg/mL
MIC, Peptide ([13]; E. faecalis EFS004): 16 µg/mL
MIC, Peptide ([13]; E. faecalis EFS008): 16 µg/mL
MIC ([13]; E. faecalis strain EFS002): 8 µg/mL
MIC, Peptide ([14]; S. aureus SA010): 2 µg/mL
MIC, Peptide ([14]; S. aureus SA011): 8 µg/mL
MIC, Peptide ([14]; S. aureus SA014): 8 µg/mL
MIC, Peptide ([14]; S. aureus SA018): 16 µg/mL
MIC, Peptide ([14]; S. aureus SA025): 2 µg/mL
MIC, Peptide ([14]; S. aureus SA093): 1 µg/mL
MIC ([14]; S. aureus strain SA005): 2 µg/mL
MIC, Peptide ([15]; P. aeruginosa PA004, unmodified parent peptide): 128 µg/mL
MIC ([15]; P. aeruginosa strain PA041): 128 µg/mL
Peptide MIC + Tobramycin [16]: 2 µg/mL
Peptide MIC Alone ([16]; Tobramycin section): 4 µg/mL
FIC ([16]; peptide + Tobramycin): 0.51
MIC, Peptide ([17]; E. coli ECO005, unmodified parent peptide): 16 µg/mL
MIC ([17]; E. coli strain ECO002): 8 µg/mL
MIC, Peptide ([18]; S. maltophilia SMA002, unmodified parent peptide): 64 µg/mL
MIC ([18]; S. maltophilia strain SMA002): 64 µg/mL
